According to patent US12533389B2, “Glycopeptide antibiotic combination therapy” (The Trustees of Princeton University, priority 2021, dated 2026):
Converted amounts (≈) assume the structure as drawn. Read-outs that look alike come from different tables or passages of the source.

What was measured:
[1] = test system: Nα,Nε-diacetyl-L-Lys-D-Ala-D-Ala tripeptide; experiment: Isothermal titration calorimetry (ITC) equilibrium binding of GPAs to the tripeptide ligand; settings: for ΔG: Experiment (ITC)
[2] = test system: C. difficile P8; experiment: MIC by agar dilution method (CLSI); assay type: cell-based, Clostridium difficile
Procedure: Minimal inhibitory concentrations (MICs) were determined by the agar dilution method following the guidelines of the Clinical and Laboratory Standards Institute (CLSI). […] The effect of vancomycin in combination with keratinicyclin B against C. difficile P8 was assessed by the checkerboard agar dilution method. […] The antibiotic agar plates were prereduced in an anaerobic container prior to inoculation. […] To avoid the selection of an atypical variant, five colonies were suspended in prereduced Gifu anaerobic broth and grown to a density equivalent to a 0.5 McFarland standard (1-2×10^8 cfu/mL). […] After incubating anaerobically at 37° C. for 48 h, the plates were inspected for bacterial growth. The MIC was defined as the lowest concentration of antibiotic leading to no growth, one colony, or a fine haze.

[3] = test system: selected gut bacteria; experiment: Antimicrobial susceptibility profile of selected gut bacteria; assay type: cell-based
[4] = target: tripeptide ligand; settings: cited from earlier work
[5] = test system: diverse Gram-positive bacteria; settings: cited from earlier work
[6] = test system: C. difficile P8; experiment: Checkerboard agar dilution of vancomycin in combination with keratinicyclin B; assay type: cell-based, Clostridium difficile
Procedure: Minimal inhibitory concentrations (MICs) were determined by the agar dilution method following the guidelines of the Clinical and Laboratory Standards Institute (CLSI). […] The effect of vancomycin in combination with keratinicyclin B against C. difficile P8 was assessed by the checkerboard agar dilution method. […] The antibiotic agar plates were prereduced in an anaerobic container prior to inoculation. […] To avoid the selection of an atypical variant, five colonies were suspended in prereduced Gifu anaerobic broth and grown to a density equivalent to a 0.5 McFarland standard (1-2×10^8 cfu/mL). Once the appropriate cell density was reached, the prereduced antibiotic agar plates were inoculated (10^5 cfu/spot). After incubating anaerobically at 37° C. for 48 h, the plates were inspected for bacterial growth. The MIC was defined as the lowest concentration of antibiotic leading to no growth, one colony, or a fine haze. […] The combination effect was defined as synergistic when ΣFIC≤0.5, additive when 0.5<ΣFIC≤1, indifferent when 1<ΣFIC≤2, and antagonistic when ΣFIC>2.

[7] = test system: Clostridium difficile, Strain P8; experiment: Antimicrobial susceptibility profile of selected gut bacteria; assay type: cell-based; settings: drug alone
[8] = test system: Clostridium perfringens, Strain WAL-14572; assay type: cell-based; settings: drug alone
[9] = test system: Ruminococcus lactaris, Strain CC59_002D, HM-1057; experiment: Antimicrobial susceptibility profile of selected gut bacteria; assay type: cell-based; settings: drug alone
[10] = test system: C. difficile; settings: cited from earlier work
[11] = test system: C. difficile infection; settings: compared to metronidazole and vancomycin; cited from earlier work
[12] = ITC, 25° C., 0.1 M sodium phosphate buffer, pH 7

**Q.** Which ΔG [1] does the source give for `CN[C@H](CC(C)C)C(=O)N[C@H]1C(=O)N[C@@H](CC(N)=O)C(=O)N[C@H]2C(=O)N[C@H]3C(=O)N[C@H](C(=O)N[C@H](C(=O)O)c4cc(O)cc(O)c4-c4cc3ccc4O)[C@H](O)c3ccc(c(Cl)c3)Oc3cc2cc(c3O[C@@H]2O[C@H](CO)[C@@H](O)[C@H](O)[C@H]2O[C@H]2C[C@](C)(N)[C@H](O)[C@H](C)O2)Oc2ccc(cc2Cl)[C@H]1O` [vancomycin] here?
**A.** -7.6 kcal/mol

**Q.** And the Kd [1, 12]?
**A.** 2.7 ± 0.4 µM

**Q.** What about the TΔS ([1]; ITC, 25° C., pH 7) of the same compound?
**A.** -0.96 kcal/mol

**Q.** What about the ΔH ([1]; ITC, 25° C., pH 7) of the same compound?
**A.** -8.6 ± 0.5 kcal/mol

**Q.** And the MIC ([2]; Clostridioides difficile, P8, 48 h)?
**A.** 1 µg/mL

**Q.** And the “spectrum of antibacterial activity” value [3]?
**A.** broad-spectrum antibacterial activity against all tested Gram-positive bacteria

**Q.** What does the source list for `C[C@@H]1O[C@@H](O[C@H]2[C@H](Oc3c4cc5cc3Oc3ccc(cc3Cl)[C@@H](O)[C@@H](N)C(=O)N[C@@H](CC(N)=O)C(=O)N[C@H]5C(=O)N[C@H]3C(=O)N[C@H](C(=O)N[C@H](C(=O)O)c5cc(O)cc(O)c5-c5cc3ccc5O)[C@H](O)c3ccc(c(Cl)c3)O4)O[C@H](CO)[C@@H](O)[C@@H]2O)C[C@](C)(N)[C@@H]1O` [desleucyl-1]?
**A.** Kd ([4]; Experiment section of Table 2, reported value): ~20000 µM; binding of the tripeptide ligand ([4]; N-terminal N-Me-D-Leu removed by Edman degradation): does not bind the tripeptide ligand; Kd ([4]; reported experimental value): ~20000 µM

**Q.** For keratinimicin A, which ΔG [1] is on record?
**A.** -7.9 kcal/mol

**Q.** What about the TΔS ([1]; ITC, 25° C., pH 7) of the same compound?
**A.** 0.85 kcal/mol

**Q.** What about the Kd ([1]; ITC, 25° C., pH 7, unit inferred) of the same compound?
**A.** 1.7 ± 0.3 µM

**Q.** What about the spectrum of activity [5] of the same compound?
**A.** broad-spectrum activity against diverse Gram-positive bacteria

**Q.** Which results are given for `CO[C@H]1[C@H](C)O[C@@H](O[C@@H]2c3ccc(c(Cl)c3)Oc3cc4cc(c3O[C@@H]3O[C@H](CO)[C@@H](O)[C@H](O)[C@H]3O[C@H]3C[C@H](N)[C@@H](O)[C@H](C)O3)Oc3ccc(cc3)[C@H]3OC(=O)N[C@H]3C(=O)N[C@@H](Cc3ccccc3)C(=O)N[C@H]4C(=O)N[C@H]3C(=O)N[C@@H]2C(=O)N[C@H](C(=O)O)c2cc(O)cc(O[C@H]4O[C@H](CO)[C@@H](O)[C@H](O)[C@@H]4O)c2-c2cc3ccc2O)C[C@@H]1N` [keratinicyclin B]?
**A.** binding of the tripeptide ([1]; ITC, several concentrations tested): did not bind the tripeptide; Kd ([1]; ITC, estimated based on the sensitivity of the setup): > 500 µM; MIC ([2]; alone, anaerobic, 37° C., 48 h): 4 µg/mL; Checkerboard analysis result ([6]; keratinicyclin B 4 μg/mL + vancomycin 0 μg/mL): I (I = indifference); Checkerboard analysis result ([6]; keratinicyclin B 8 μg/mL + vancomycin 0 μg/mL): I (I = indifference); spectrum of antibacterial activity ([3]; each drug alone, FIG. 5): narrower spectrum of antibiotic activity; growth inhibition [7]: inhibiting the growth; growth inhibition [8]: inhibiting the growth; growth inhibition [9]: inhibiting the growth; minimal inhibitory concentration (MIC) ([10]; previous bioactivity data): 9.8 µM (≈ 16.1 µg/mL); spectrum of activity ([10]; previously shown): narrow-spectrum activity against C. difficile

**Q.** For `CCc1c(Cl)c(O)c(Cl)c(O)c1C(=O)O[C@H]1[C@H](O)[C@H](OC)[C@H](OC/C2=C\C=C\C[C@H](O)/C(C)=C/[C@H](CC)[C@@H](O[C@@H]3OC(C)(C)[C@@H](OC(=O)C(C)C)[C@H](O)[C@@H]3O)/C(C)=C/C(C)=C/C[C@@H]([C@@H](C)O)OC2=O)O[C@@H]1C` [fidaxomicin], which recurrence rates [11] is on record?
**A.** halves recurrence rates

**Q.** For keratinimicin C, which Kd [1, 12] is on record?
**A.** 2.8 ± 0.3 µM

**Q.** And the TΔS ([1]; ITC, 25° C., pH 7)?
**A.** 0.2 kcal/mol

**Q.** What about the ΔH ([1]; ITC, 25° C., pH 7) of the same compound?
**A.** -7.4 ± 0.3 kcal/mol
